Results from US12655472B2, “Microbe detection method using fish analysis” (priority 2020, dated 2026).

Columns and labels:
E. coli K-12 = assay: Antibiotic susceptibility evaluation through FISH analysis (ratio of test microorganisms after about 1 hour culturing); assay type: cell-based
Experimental: (§1) In this example, a total of two experiments were conducted on each of E. coli K-12 bacteria as test microorganisms having antibiotic susceptibility, and E. coli ER7 bacteria as test microorganisms having antibiotic resistance, and each group was set to include E. faecalis bacteria having resistance to Cefotaxime.
(§2) The number or ratio of initial microorganisms in the first microbial group, the second microbial group, and the third microbial group was set identically.
(§3) In an embodiment, E. coli K-12 bacteria, antibiotic-resistant E. coli ER7 bacteria, and E. faecalis resistant to cefotaxime were used, and each strain was cultured up to OD 600=0.5 to obtain a sample containing the test microorganisms. On the other hand, after treating the sample with antibiotics, the amount of the test microorganisms was quantified by imaging at OD 600. In this case, the imaging process was performed by centrifugation at 3,000 g for 3 min, concentrating the sample 10-fold and fixing the same on a glass substrate coated with Vectabond.
(§4) To fix bacterial samples, a 50:1 solution of acetone and Vectabond was dropped onto a sample dish. Next, the sample dish was incubated at room temperature for 5 minutes, and washed 2 to 3 times with tertiary water, and then the water was completely removed therefrom. Thereafter, the test microorganisms samples of Example 6 were dropped on the coated sample dish, and incubated at room temperature for 30 minutes, and the remaining sample was washed three times. Next, a 3.7% formaldehyde solution was dropped on the sample dish on which the sample was fixed, and then the fixation was performed for 30 minutes at room temperature. Afterwards, it was washed 2 to 3 times with nuclease-free tertiary water. […] Finally, after immersing the sample in a 2×SSC solution diluted with nuclease-free tertiary […], a fluorescence image of the sample was acquired using a confocal fluorescence microscope.

E. faecalis = assay: as above; assay type: cell-based; details: first microbial group treated and cultured with antibiotics
Experimental: as §1, §2, §3, §4

CO/N=C(\C(=O)N[C@@H]1C(=O)N2C(C(=O)O)=C(COC(C)=O)CS[C@H]12)c1csc(N)n1 [cefotaxime]
number of population of E. coli K-12 (E. coli K-12; first microbial group treated and cultured with antibiotics, about 1 hour): rapidly reduced | ratio of E. coli and E. faecalis (E. coli K-12; first microbial group, mixed E. coli and E. faecalis sample treated with antibiotic and cultured for 1 hour): ratio of E. coli and E. faecalis changed | growth of E. faecalis (E. faecalis): continued to grow
